Consider twelve compounds from patent publication US6669925B1, “Sigma-2 receptors as biomarkers of tumor cell proliferation” (Wake Forest University, priority 2000, dated 2003).

Read-outs that look alike come from different tables or passages of the source. Some results are limits rather than exact numbers.

The target of one assay is T1, σ1 receptors (Cavia porcellus, UniProt Q60492).
T1 construct: from tissue; host or cells: guinea pig brain homogenate (per the earlier reading's assay description)
Nature of the assay: In vitro binding to σ1 receptors: inhibition of [3H](+)-pentazocine binding to guinea pig brain homogenates. An excerpt:
(§1) The ability to bind to sigma-1 or sigma-2 can be measured using methods currently known to those of skill in the art or using those techniques described in U.S. application Ser. No. 60/013717, filed Mar. 30, 1996; in U.S. application Ser. No. 09/142935, filed Sep. 17, 1998; or in U.S. application Ser. No. 09/528398, filed Mar. 20, 2000.

Another assay deals with T2, σ2 receptors (Rattus norvegicus, UniProt Q5U3Y7).
T2 construct: from tissue; host or cells: rat liver homogenate (per the earlier reading's assay description)
T2 sequence (Q5U3Y7 1-176): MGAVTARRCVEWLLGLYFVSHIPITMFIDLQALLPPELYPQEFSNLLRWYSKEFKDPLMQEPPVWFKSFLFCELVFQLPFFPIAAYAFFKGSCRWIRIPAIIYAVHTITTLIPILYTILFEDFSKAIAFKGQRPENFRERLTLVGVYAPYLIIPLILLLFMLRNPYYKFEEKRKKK
Briefly: In vitro binding to σ2 receptors: inhibition of [3H]DTG binding to rat liver homogenates.
Text: as §1

[1] abbreviates: Table II, footnote a not given, read-out: σ1 (binding to σ1 receptors).
Where [2] appears, read: Table II, footnote b not given, read-out: σ2 (binding to σ2 receptors).
Setting [3] is: Table I, guinea pig brain homogenates (n = 3-5), read-out: σ1: Ki for inhibition of the binding of [3H](+)-pentazocine.

T1 sequence (Q60492 whole entry): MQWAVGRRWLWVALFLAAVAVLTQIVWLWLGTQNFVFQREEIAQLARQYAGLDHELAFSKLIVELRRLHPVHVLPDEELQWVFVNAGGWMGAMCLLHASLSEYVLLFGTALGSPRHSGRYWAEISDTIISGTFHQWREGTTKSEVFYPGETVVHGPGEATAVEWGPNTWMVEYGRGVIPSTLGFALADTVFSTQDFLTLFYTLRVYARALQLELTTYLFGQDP

Consider `COc1ccc(C)cc1NC(=O)OC1CC2CCCC(C1)N2CCc1ccc(I)cc1` (stereo not shown) [Compound 7a], for which the Ki on σ1 receptors (setting [1]) was found to be 0.175 ± 0.00671 µM; on σ2 receptors (setting [2]), 0.141 ± 0.00836 µM.
For the compound `COc1ccc(C)cc1NC(=O)OC1CC2CCCC(C1)N2CCc1ccc(NC(=O)OC(C)(C)C)cc1` (stereo not shown) [Compound 7b], the Ki on σ1 receptors (setting [1]) and on σ2 receptors (setting [2]) was above 1 µM throughout.
Take `COc1ccc(C)cc1NC(=O)OC1CC2CCCC(C1)N2CCc1ccccc1` (stereo not shown) [Compound 6a]: the Ki worked out at 0.0599 ± 0.0046 µM on σ1 receptors and 0.0012 ± 0.0001 µM on σ2 receptors.
For the compound `COc1ccc(C)cc1NC(=O)OC1CC2CCCC(C1)N2Cc1ccccc1` (stereo not shown) [—, reference compound], the Ki at σ1 receptors came to 0.0925 ± 0.011 µM; at σ2 receptors, 0.00306 ± 0.00083 µM.
`COc1ccc(C)cc1NC(=O)OC1CC2CCCC(C1)N2C/C=C/c1ccc(N)cc1` (stereo not shown) returned a Ki at σ2 receptors of 0.0036 µM.
Take `COc1ccc(C)cc1NC(=O)OC1CC2CCCC(C1)N2CCCCCCc1ccccc1` (stereo not shown) [Compound 6e]: the Ki on σ1 receptors (setting [3]) turned out to be 0.214 ± 0.0235 µM; at σ2 receptors, 0.00761 ± 0.00041 µM.
On to `COc1ccc(C)cc1NC(=O)OC1CC2CCCC(C1)N2CCCc1ccc(N)cc1` (stereo not shown), for which, on σ2 receptors, the Ki was determined as 0.0105 µM.
As for `COc1ccc(C)cc1NC(=O)OC1CC2CCCC(C1)N2CCCCc1ccccc1` (stereo not shown) [Compound 6c], the Ki is 0.0655 ± 0.0043 µM at σ1 receptors and 0.00292 ± 0.00021 µM on σ2 receptors.
As for `COc1ccc(C)cc1NC(=O)OC1CC2CCCC(C1)N2CCc1ccc(N)cc1` (stereo not shown) [Compound 7c], the Ki is above 1 µM at σ1 receptors (setting [1]) and 0.00778 ± 0.00061 µM at σ2 receptors.
In the case of `COc1ccc(C)cc1NC(=O)OC1CC2CCCC(C1)N2CCCCCCCc1ccccc1` (stereo not shown) [Compound 6f], the values for the Ki at σ1 receptors (setting [3]) and at σ2 receptors were 0.23 ± 0.0286 µM and 0.0076 ± 0.00018 µM, respectively.
As to `COc1ccc(C)cc1NC(=O)OC1CC2CCCC(C1)N2CCCCCc1ccccc1` (stereo not shown) [Compound 6d], the Ki at σ1 receptors came out at 0.0173 ± 0.0012 µM; at σ2 receptors, 0.00182 ± 0.00019 µM.
In the case of `COc1ccc(C)cc1NC(=O)OC1CC2CCCC(C1)N2CCCc1ccccc1` (stereo not shown) [Compound 6b], the Ki on σ1 receptors was found to be 0.0729 ± 0.0016 µM; on σ2 receptors it was 0.00197 ± 0.00012 µM.
